Measured values from US10473647B1, “Peptides for use in treatment and diagnosis of type 1 diabetes” (ImmusanT, Inc., priority 2014, dated 2019).
No end group written: not given here.

Experiments:
Type in all cases: cell-based, human
undepleted whole blood [1] = assay: Whole blood cytokine assay, IP-10, undepleted blood, number of subjects with >=1.25 fold over medium (Example 2); conditions: 24 h, peptides 20 ug/mL, pools 4 ug/mL, NEX-01/Nexgen POOL 25 uM, CEFT 1 ug/mL
Procedure: (§1) The depleted blood as well as the remaining undepleted whole blood was then utilized in whole blood cytokine release assays. T-cell cytokine responses were assessed for reactivity to pools of 17mer peptides encompassing all unique 12mer amino-acid sequences derived from pancreatic islet antigens commonly recognized by autoantibodies in T1D: insulin, glutamic decarboxylase-65 (GAD65), and insulinoma-associated antigen (IA)-2 as provided in Table 13A and Table 13B.
(§2) Fresh heparinized blood was incubated with peptide. Concentrations of individual islet-autoantigen peptides were 20 μg/mL and constituent peptides in islet-autoantigen pools were 4 ug/mL. Control MHC class II peptide mix CEFT was used at 1 μg/mL. Gliadin peptide pools were added to whole blood assays at 25 μM. Whole blood assays were incubated for 24 h at 37° C. in 5% CO2. Plasma was separated from blood after centrifugation at 500×g for 10 minutes at room temperature and then transferred to a corresponding well in a “mirror image” sterile 96-well plate. and frozen at −80° C. until use. Multiplex bead-based cytokine assays (MAGPix) were performed according to manufacturer's instructions on thawed plasma. Concentrations of interferon (IFN)-γ-induced protein-10 (IP-10), interleukin (IL)-2 and IFN-γ. Table 14 is a summary of the results for the whole blood cytokine assays which expresses the data in the number of subjects that are positive for ≥1.25 fold production of cytokine over cells incubated with medium only (background).

[2] = system: CD8+ T cell depleted blood; assay: Whole blood cytokine assay, IL-2, CD8+ T cell depleted blood (Example 2); conditions: T1D Subjects (n of 6), 24 h, peptides 20 ug/mL, pools 4 ug/mL, NEX-01/Nexgen POOL 25 uM, CEFT 1 ug/mL
Procedure: (§3) Depletion of human CD4+ and CD8+ T cells directly from whole blood, using CD4 and CD8 Dynabeads respectively (Dynabeads Human CD4, Life Technologies, #11145D; Dynabeads Human CD8, Life Technologies, #11145D), was done according to the manufacturer's protocol. Briefly, the Dynabeads were resuspended and the desired volume was transferred to a 15 Ml tube. The calculation of the volume of beads added to whole blood was 2×10^6 CD4 beads (25 μL) and 4×10^6 CD8 beads (50 μL) per Ml of whole blood. The beads were first washed with 3 Ml PBS, vortexed and placed on the magnet for 1 minute. Supernatant was discarded and beads were removed from the magnet. Whole blood was then added to the beads at the volume calculated for the concentration of beads in the tubes. The tubes containing whole blood and Dynabeads were then incubated 45 minutes at 4° C. on a continuous rocker.
(§4) Tubes were then placed into the magnet for 2 minutes. The whole blood supernatant was then transferred to a new tube for use in 24-hour Whole Blood Assay or for Flow Cytometric Analysis. Magnetic beads were discarded.
as §1, §2

[3] = system: CD4+ T cell depleted blood; assay: Whole blood cytokine assay, IFNg, CD4+ T cell depleted blood (Example 2); conditions: T1D Subjects (n of 6), 24 h, peptides 20 ug/mL, pools 4 ug/mL, NEX-01/Nexgen POOL 25 uM, CEFT 1 ug/mL
Procedure: as §3, §4, §1, §2

[4] = system: CD8+ T cell depleted blood; assay: Whole blood cytokine assay, IFNg, CD8+ T cell depleted blood (Example 2); conditions: T1D Subjects (n of 6), 24 h, peptides 20 ug/mL, pools 4 ug/mL, NEX-01/Nexgen POOL 25 uM, CEFT 1 ug/mL
Procedure: as §3, §4, §1, §2

[5] = system: CD8+ T cell depleted blood; assay: Whole blood cytokine assay, IP-10, CD8+ T cell depleted blood (Example 2); conditions: T1D Subjects (n of 6), 24 h, peptides 20 ug/mL, pools 4 ug/mL, NEX-01/Nexgen POOL 25 uM, CEFT 1 ug/mL
Procedure: as §3, §4, §1, §2

undepleted whole blood [6] = assay: Whole blood cytokine assay, IFNg, undepleted blood, number of subjects with >=1.25 fold over medium (Example 2); conditions: Healthy Subjects (n of 4); whole blood; 24 h; peptides 20 ug/mL, pools 4 ug/mL, NEX-01/Nexgen POOL 25 uM, CEFT 1 ug/mL
Procedure: as §1, §2

[7] = Healthy Subjects (n of 4), whole blood
[8] = T1D Subjects (n of 6), Undepleted WB

| Substance | Fold Change IP-10, number of subjects positive for ≥1.25 fold production of cytokine over medium only (undepleted whole blood [1]; [7]) | Fold Change IP-10, number of subjects positive for ≥1.25 fold production of cytokine over medium only (undepleted whole blood [1]; [8]) | Fold Change IL-2, number of subjects positive for ≥1.25 fold production of cytokine over medium only [2] | Fold Change IFNg, number of subjects positive for ≥1.25 fold production of cytokine over medium only [3] | Fold Change IFNg, number of subjects positive for ≥1.25 fold production of cytokine over medium only [4] | Fold Change IP-10, number of subjects positive for ≥1.25 fold production of cytokine over medium only [5] | Fold Change IFNg, number of subjects positive for ≥1.25 fold production of cytokine over medium only (undepleted whole blood [6]) |
| --- | --- | --- | --- | --- | --- | --- | --- |
| 20150-01: peptide tested in Example 2 whole blood cytokine assays (Tables 13A/13B, 14) (FYTPKTRREAEDLQGSL) | 2/4 | 4/6 | 1/6 | – | – | – | – |
| 20150-15 (LQGSLQPLALEGSLQKR) [Peptide 20150-15] | – | – | 1/6 | 1/6 | 2/6 | – | – |
| L3P1, 007 (SPLQAELLPPLLEHLLL) | 2/4 | – | – | 1/6 | – | 1/6 | – |
| 20150-19 (EDLQVGQVELGGGPGAG-NH2) [Peptide 20150-19] | 1/4 | – | 1/6 | 2/6 | 3/6 | – | 1/4 |
| L3P1, 046 (PKAARPPVTPVLLEKKS) | 1/4 | 1/6 | – | – | – | 2/6 | – |
